# Measurements as given in PubChem BioAssay (NCI).
#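 Test compounds were applied to cells in 96-well plates for 48 hours at 5 doses. GI50 = concentration required for 50% inhibition of growth. At the TGI there is no net growth.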
# Legend:
# Test in all cases: NCI tumour cell line growth inhibition, 48 h
# RXF 393 renal = tested on: RXF 393 renal
# COLO 205 colon = tested on: COLO 205 colon
# RPMI-8226 leukemia = tested on: RPMI-8226 leukemia
# NCI-H460 lung = tested on: NCI-H460 lung
# NCI-H522 lung = tested on: NCI-H522 lung
# MCF7 breast = tested on: MCF7 breast
# SK-MEL-28 melanoma = tested on: SK-MEL-28 melanoma
# CCRF-CEM leukemia = tested on: CCRF-CEM leukemia
# MDA-MB-231 breast = tested on: MDA-MB-231 breast
# SNB-19 CNS = tested on: SNB-19 CNS
# UACC-62 melanoma = tested on: UACC-62 melanoma
# SF-268 CNS = tested on: SF-268 CNS
# DU-145 prostate = tested on: DU-145 prostate
# SK-MEL-2 melanoma = tested on: SK-MEL-2 melanoma
# EKVX NSCLC = tested on: EKVX NSCLC
# HT29 colon = tested on: HT29 colon
# SNB-75 CNS = tested on: SNB-75 CNS
# A549 NSCLC = tested on: A549 NSCLC
# HCT-116 colon = tested on: HCT-116 colon
# SK-MEL-5 melanoma = tested on: SK-MEL-5 melanoma
# UO-31 renal = tested on: UO-31 renal
# OVCAR-3 ovarian = tested on: OVCAR-3 ovarian
# HCC-2998 colon = tested on: HCC-2998 colon
# TK-10 renal = tested on: TK-10 renal
# HOP-92 NSCLC = tested on: HOP-92 NSCLC
# T-47D breast = tested on: T-47D breast
# MOLT-4 leukemia = tested on: MOLT-4 leukemia
# NCI/ADR-RES ovarian = tested on: NCI/ADR-RES ovarian
# UACC-257 melanoma = tested on: UACC-257 melanoma
compound,measurement,setting,value
[N-]=[N+]=NCCCn1c2c(c3ccccc3c1=O)C(=O)c1cc(Br)ccc1-2,GI50,RXF 393 renal,> 100 µM
same,TGI,RXF 393 renal,> 100 µM
same,GI50,COLO 205 colon,> 100 µM
same,TGI,COLO 205 colon,> 100 µM
same,GI50,RPMI-8226 leukemia,> 100 µM
same,TGI,RPMI-8226 leukemia,> 100 µM
same,GI50,NCI-H460 lung,46.8 µM
same,TGI,NCI-H460 lung,> 100 µM
same,GI50,NCI-H522 lung,> 100 µM
same,TGI,NCI-H522 lung,> 100 µM
same,GI50,MCF7 breast,39.8 µM
same,TGI,MCF7 breast,> 100 µM
same,GI50,SK-MEL-28 melanoma,> 100 µM
same,TGI,SK-MEL-28 melanoma,> 100 µM
same,GI50,CCRF-CEM leukemia,50.8 µM
same,TGI,CCRF-CEM leukemia,> 100 µM
same,GI50,MDA-MB-231 breast,> 100 µM
same,TGI,MDA-MB-231 breast,> 100 µM
same,GI50,SNB-19 CNS,> 100 µM
same,TGI,SNB-19 CNS,> 100 µM
same,GI50,UACC-62 melanoma,> 100 µM
same,TGI,UACC-62 melanoma,> 100 µM
same,GI50,SF-268 CNS,> 100 µM
same,TGI,SF-268 CNS,> 100 µM
same,GI50,DU-145 prostate,> 100 µM
same,TGI,DU-145 prostate,> 100 µM
same,GI50,SK-MEL-2 melanoma,> 100 µM
same,TGI,SK-MEL-2 melanoma,> 100 µM
same,GI50,EKVX NSCLC,> 100 µM
same,TGI,EKVX NSCLC,> 100 µM
same,GI50,HT29 colon,> 100 µM
same,TGI,HT29 colon,> 100 µM
same,GI50,SNB-75 CNS,45.1 µM
same,TGI,SNB-75 CNS,> 100 µM
same,GI50,A549 NSCLC,> 100 µM
same,TGI,A549 NSCLC,> 100 µM
same,GI50,HCT-116 colon,> 100 µM
same,TGI,HCT-116 colon,> 100 µM
same,GI50,SK-MEL-5 melanoma,> 100 µM
same,TGI,SK-MEL-5 melanoma,> 100 µM
same,GI50,UO-31 renal,> 100 µM
same,TGI,UO-31 renal,> 100 µM
same,GI50,OVCAR-3 ovarian,> 100 µM
same,TGI,OVCAR-3 ovarian,> 100 µM
same,GI50,HCC-2998 colon,> 100 µM
same,TGI,HCC-2998 colon,> 100 µM
same,GI50,TK-10 renal,> 100 µM
same,TGI,TK-10 renal,> 100 µM
same,GI50,HOP-92 NSCLC,9.42 µM
same,TGI,HOP-92 NSCLC,92.4 µM
same,GI50,T-47D breast,> 100 µM
same,TGI,T-47D breast,> 100 µM
same,GI50,MOLT-4 leukemia,28.9 µM
same,TGI,MOLT-4 leukemia,> 100 µM
same,GI50,NCI/ADR-RES ovarian,> 100 µM
same,TGI,NCI/ADR-RES ovarian,> 100 µM
same,GI50,UACC-257 melanoma,> 100 µM
